The values that follow come from patent US20260166039A1 (SCHRÖDINGER, INC., priority 2022, published 2026).

Where only a bound is given, the exact number is not on record here.

T1 sequence (P30291 299-569 limits assumed): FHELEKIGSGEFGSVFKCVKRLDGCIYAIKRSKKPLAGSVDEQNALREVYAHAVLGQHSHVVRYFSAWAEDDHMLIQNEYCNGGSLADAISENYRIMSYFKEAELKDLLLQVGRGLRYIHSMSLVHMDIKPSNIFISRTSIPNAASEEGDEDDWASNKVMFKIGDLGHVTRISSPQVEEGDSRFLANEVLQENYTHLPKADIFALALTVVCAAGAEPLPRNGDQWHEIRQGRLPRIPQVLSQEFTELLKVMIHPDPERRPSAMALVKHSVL

One assay addresses T1, Wee1 kinase domain (Homo sapiens, UniProt P30291).
T1 construct: Wee1 kinase domain was purchased from Carna (catalog #05-177); purchased Carna 05-177
The experiment in a line: Wee1 Kinase Biochemical Assay (ADP-Glo). The note with it: 1 nM Wee1 enzyme, 15 uM ATP, 4 hours at 25° C. In outline:
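ADP-Glo detection of ADP produced after 4 h at 25° C by 1 nM Wee1 kinase domain on 2 ng/mL poly(Lys,Tyr 4:1) with 15 uM ATP. Buffer: 40 mM Tris-HCl, 20 mM MgCl2, 0.1 mg/mL BSA, 2 mM DTT. Inhibition is relative to DMSO (high) and saturating Wee1 inhibitor (low) controls.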
As a reminder, the IC50 is the point on the concentration scale where inhibition reaches its midpoint. Turning to `CN1CCN(c2ccc(Nc3ncc4c(n3)N(c3ccc(=O)n(C)n3)[C@@H]3CC(C)(C)OC[C@]43C)cc2)CC1` (single isomer, unassigned) [Example 826], the IC50 was below 10 nM. `CCn1ccc(Nc2ncc3c(n2)N(c2cccc(N=S(C)(C)=O)n2)[C@@H]2CC(C)(C)OC[C@]32C)n1` (single isomer, unassigned) [Example 830] came in with an IC50 below 10 nM. On to `CN1CCCC12CCN(c1ccc(Nc3ncc4c(n3)N(c3ccccn3)[C@@H]3CC(C)(C)OC[C@]43C)cc1)CC2` (single isomer, unassigned) [Example 823], for which the IC50 is below 10 nM.

Staying with this assay, now noted: Wee1 kinase domain, 15 uM ATP, ADP-Glo.
Molecule `CN1CCC(c2ccc(Nc3ncc4c(n3)N(c3cccc(N=S(C)(C)=O)n3)[C@H]3CC(C)(C)OC[C@@]43C)cc2F)CC1` (single isomer, unassigned) [Example 178] displayed an IC50 of 100 to 1000 nM. `C[C@H]1COC(=O)N1c1cccc(N2c3nc(Nc4ccc(O[C@H]5CCN(C)C5)cc4)ncc3[C@]3(C)COC(C)(C)C[C@H]23)n1` (single isomer, unassigned) [Example 332] had an IC50 of 10 to 100 nM.

`CN1CC[C@@H](Oc2ccc(Nc3ncc4c(n3)N(c3cccc(N=S(C)(C)=O)n3)[C@H]3CC(C)(C)OC[C@@]43C)cc2)C1` (single isomer, unassigned) [Example 160] displayed an IC50 of 100 to 1000 nM. `CC1(C)C[C@@H]2N(c3cccc(N=S(C)(C)=O)n3)c3nc(Nc4ccc([C@@H]5CCCN5)nc4)ncc3[C@]2(C)CO1` (single isomer, unassigned) [Example 213] had an IC50 of 10 to 100 nM.

Molecule `CNCc1cccc(N2c3nc(Nc4ccc5c(c4)C(=O)N(C)CC5(C)C)ncc3[C@]3(C)COC(C)(C)C[C@H]23)n1` (single isomer, unassigned) [Example 91] returned an IC50 of 100 to 1000 nM. For `CN1CC(c2ccc(Nc3ncc4c(n3)N(c3cccc(N=S(C)(C)=O)n3)[C@H]3CC(C)(C)OC[C@@]43C)cc2F)C1` (single isomer, unassigned) [Example 185], the IC50 lay in the range of 100 to 1000 nM. In turn, `CN1CCN(c2ccc(Nc3ncc4c(n3)N(c3cccc(C(C)(C)O)n3)[C@H]3CC(C)(C)OC[C@@]43C)cc2)CC1` (single isomer, unassigned) [Example 3] came in with an IC50 of 100 to 1000 nM.

Still in this assay, the particulars now being: class symbols; 1 nM Wee1 enzyme, 15 uM ATP, 4 hours at 25° C.
`CN1CC[C@H](Oc2ccc(Nc3ncc4c(n3)N(c3cccc(N5CCCC5=O)n3)[C@H]3CC(C)(C)OC[C@@]43C)cc2)C1` [Example 619, 1-(6-((4bS,8aS)-4b,7,7-trimethyl-2-((4-(((S)-1-methylpyrrolidin-3-yl)oxy)phenyl)amino)-4b,7,8,8a-tetrahydropyrano[3′,4′:4,5]pyrrolo[2,3-d]pyrimidin-9(5H)-yl)pyridin-2-yl)pyrrolidin-2-one] gave an IC50 of 10 to 100 nM. `CN1CC[C@H](OC(=O)Nc2ncc3c(n2)N(c2cccc(N=S(C)(C)=O)n2)[C@@H]2CC(C)(C)OC[C@]32C)C1` (single isomer, unassigned) [Example 773] had an IC50 of 10 to 100 nM. Still for that read-out and setting: the result for `Cc1cc(Nc2ncc3c(n2)N(c2cccc(C(C)(C)O)n2)[C@H]2CC(C)(C)OC[C@@]32C)ccc1N1C[C@@H]2C[C@H]1CN2C` (single isomer, unassigned) [Example 430] reads 10 to 100 nM. Turning to `CNCc1cccc(N2c3nc(Nc4cnnc(C)c4)ncc3[C@@]3(C)COC(C)(C)C[C@@H]23)n1` (single isomer, unassigned) [Example 478], the IC50 was 10 to 100 nM. The same measure, in the same setting: the result for `CN1C[C@H]2C[C@@H]1CN2c1ccc(Nc2ncc3c(n2)N(c2cccc(N4CCCC4=O)n2)[C@H]2CC(C)(C)OC[C@@]32C)cc1` [Example 630, 1-(6-((4bS,8aS)-4b,7,7-trimethyl-2-((4-((1R,4R)-5-methyl-2,5-diazabicyclo[2.2.1]heptan-2-yl)phenyl)amino)-4b,7,8,8a-tetrahydropyrano[3′,4′:4,5]pyrrolo[2,3-d]pyrimidin-9(5H)-yl)pyridin-2-yl)pyrrolidin-2-one] reads 100 to 1000 nM. In turn, `CC1(C)C[C@H]2N(c3cccc(N=S(C)(C)=O)n3)c3nc(NC(=O)c4ccccc4F)ncc3[C@@]2(C)CO1` (single isomer, unassigned) [Example 409] registered an IC50 of 100 to 1000 nM.
